Reference: paper PMC12503906, “Novel Pyrazolo [1,5‐a]−1,3,5‐Triazine Derivatives as CDK7 Inhibitors: Synthesis and Biological Insights in Pancreatic Ductal Adenocarcinoma Models” (Chemmedchem, 2025)
Where “and” joins values, the source holds several entries; their conditions need not be identical. Equal values may be shown once. Read-outs that look alike come from different tables or passages of the source.

Legend:
[1] = system: PATU‐T GR; test: SRB chemosensitivity assay, gemcitabine resistant PATU‐T GR cells; assay type: cell-based
Procedure: Three lines of immortalized PDAC cells were selected as representative phenotypes: mesenchymal (PATU‐T), quasimesenchymal (PANC‐1), and an epithelial clone of SUIT 2 cells (SUIT 2.28). Cells were cultured in noncoated T‐75 and T‐25 flasks under adherent conditions, using 1× DMEM (Gibco, 41,966,029) for PATU‐T and RPMI (Gibco, 21,875,034) for SUIT 2.28 and PANC‐1, both supplemented with 10% NBCS and 1% P/S. Additional employed models were the PDAC3 cells, a primary cell culture, the PSCs, which were immortalized healthy pancreatic cells, and the PATU‐T‐GR, which was a gemcitabine resistant model of PATU‐T. PDAC3 and PSCs were cultivated using complete RPMI medium, while PATU‐T‐GR required complete DMEM medium. For seeding, cells were detached with Trypsin‐EDTA (0.05%) (GibcoTM, 25,300–096) and were consequently counted using the Automated Cell Counter (Luna‐II, Westburg). Cells were then plated on 96‐ or 6‐well plates depending on the planned experiment.
The Sulforhodamine B (SRB) chemosensitivity assay was used to measure cytotoxicity and cell proliferation post drug treatment. At day 0, 3–6 × 10^3 cells were seeded in a 96‐well plate, depending on the cell line. At day 1, cells were attached and ready to be treated. For the calculation of the IC50, drug dilutions for the compounds 1b, 1c, 1d, 1e, 1g, 1hr, 1i, 1j, and LDC4297 (MedChemExpress, HY‐12,653) were prepared in dilution trays and eight different concentrations were included. These were added in triplicates to the cells, which were then incubated for […] at 37 °C in 5% CO2. During day 1, the control plate was fixed with 50% Trichloroacetic acid (TCA), as intended to be the baseline plate used for the normalization of the data. 72 h post‐treatment, the cells were fixed with TCA, and placed at 4 °C for about 2 h. The plates were then washed with distillated water and left to dry under the hood with ventilation. Subsequently, plates were stained with 0.4% SRB for 15 min and washed with 1% acetic acid to remove excess stain. Once dried again, the protein‐bound SRB was dissolved in 10 mM TRIS, and the plates were placed on a shaker for 10 min per plate. Lastly, the absorbance was measured at 492 nm with a spectrophotometer (Synergy HT, BioTek). The absorbance data obtained were normalized to the day 1 control, and the percentage of cell growth in relation to the control was calculated using the following formula. (1) %Cell growth=Mean OD treatment−Mean OD day0/Mean OD control−Mean OD day0×100
The percentage of proliferation and their respective standard deviations were used to perform statistical analysis in GraphPad Prism software v 10 (GraphPad Software, San Diego, CA). Data were normalized to the day 0 control and to their own untreated 72 h control. […]

[2] = system: PANC‐1; test: Cell cycle analysis (FACS, PI staining), PANC‐1; assay type: cell-based; conditions: for percentage of cells in the G2‐M phase: untreated 18.1%; for percentage of cells in the G0‐G1 phase: untreated 40.7%; for percentage of cells in the S phase: untreated 41.3%
Procedure: Modulation of the cell cycle was analyzed via flow cytometry. Cells (5 × 10^5 cells mL^− ^1) were seeded in 6‐well plates and were incubated at 37 °C overnight. Cells were treated with the compounds 1b and 1g at two different concentrations (1 × IC50 and 4 × IC50, according to each cell line) and were again incubated for 24 and 72 h. After treatment, cells were harvested with trypsin and were collected in specific fluorescence‐activated cell sorting (FACS) tubes. Cells were then washed with PBS and centrifuged at 1500 rpm for 5 min, in order to form a pellet. These pellets were fixed in 1 mL of ice‐cold 70% ethanol, added drop by drop during vortex, and placed in the refrigerator at 4 °C. After overnight incubation, the cells were washed twice with PBS, centrifuged (5 min at 1500 rpm), resuspended in 50 µL of RNase (100 µg mL^− ^1), and incubated for 30 min at 37 °C. Finally, 200 µL of propidium iodide solution (PI, 50 µg mL^− ^1) was added, and the cell distribution in the various phases of the cell cycle was analyzed via BD LSRFortessa Cell Analyzer. Data analysis was carried out with FACSdiva software (Becton Dickinson), while cell cycle distribution was determined using FCS express software.

[3] = biological target: CDK7 (Homo sapiens, UniProt P50613); test: In vitro CDK7 enzyme inhibition assay (ADP‐Glo); assay type: biochemical; set-up: purchased Promega Corporation VA7402
CDK7, sequence (P50613 whole entry): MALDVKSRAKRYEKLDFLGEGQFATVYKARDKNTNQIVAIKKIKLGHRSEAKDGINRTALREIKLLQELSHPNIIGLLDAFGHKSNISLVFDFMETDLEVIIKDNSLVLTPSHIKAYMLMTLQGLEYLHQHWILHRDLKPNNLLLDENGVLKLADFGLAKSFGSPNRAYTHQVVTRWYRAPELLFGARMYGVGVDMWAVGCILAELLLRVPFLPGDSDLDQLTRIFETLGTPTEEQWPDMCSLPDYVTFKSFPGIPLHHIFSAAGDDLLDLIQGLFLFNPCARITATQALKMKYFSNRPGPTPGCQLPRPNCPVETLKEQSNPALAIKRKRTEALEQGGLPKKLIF
CDK7, sequence (P51946 whole entry partner): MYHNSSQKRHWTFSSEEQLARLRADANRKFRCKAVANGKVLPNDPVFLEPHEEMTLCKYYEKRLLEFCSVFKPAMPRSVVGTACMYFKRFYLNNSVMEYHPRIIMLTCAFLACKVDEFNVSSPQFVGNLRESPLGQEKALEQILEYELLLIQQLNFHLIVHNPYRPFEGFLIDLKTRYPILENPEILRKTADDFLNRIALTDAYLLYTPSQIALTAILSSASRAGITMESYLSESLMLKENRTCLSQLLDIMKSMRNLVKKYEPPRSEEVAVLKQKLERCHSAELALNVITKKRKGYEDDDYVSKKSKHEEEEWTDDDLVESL
CDK7, sequence (P51948 whole entry partner): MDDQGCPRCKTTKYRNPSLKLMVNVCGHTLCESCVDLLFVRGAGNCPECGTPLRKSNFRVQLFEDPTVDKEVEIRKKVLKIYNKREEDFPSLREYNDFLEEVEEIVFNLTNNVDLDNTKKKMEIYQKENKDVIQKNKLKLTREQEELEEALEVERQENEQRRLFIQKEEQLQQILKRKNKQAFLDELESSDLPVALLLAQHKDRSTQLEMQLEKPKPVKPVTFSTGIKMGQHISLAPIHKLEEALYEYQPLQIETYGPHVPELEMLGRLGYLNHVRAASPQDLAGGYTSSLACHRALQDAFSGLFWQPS
Procedure: The CDK7 enzyme inhibition assay was conducted using the ADP‐Glo Kinase Assay (VA7402, Promega Corporation, Madison, WI, USA) according to the manufacturer's instructions. In this assay, CDK7 catalyzes the conversion of ATP to ADP. The reaction was terminated by adding the ADP‐Glo reagent, which depletes residual ATP. Subsequently, the kinase detection reagent was introduced to convert ADP back into ATP, which was then measured via a luciferase reaction, producing luminescence. The assay was carried out at room temperature, using DMSO as the solvent for the tested compounds. Each compound was tested at eight different concentrations. […] Luminescence was recorded using a BioTek plate reader (BioTek Instruments Inc.), as previously described.^[ [39] ^] The percentage of enzyme inhibition was determined for each compound at different concentrations, and mean IC50 values of triplicate experiments were calculated using GraphPad Prism.

[4] = biological target: phosphorylated CDK7 (p‐CDK7) (Homo sapiens, UniProt P50613); test: Phospho‐CDK7 (Thr170) cell‐based ELISA, SUIT 2.28; set-up: two PDAC preclinical models (SUIT 2.28 and PDAC3); endogenous in cells; host or cells: SUIT 2.28; conditions: SUIT 2.28, 4 × IC50, ELISA
phosphorylated CDK7 (p‐CDK7), sequence (P50613 2-346 limits assumed): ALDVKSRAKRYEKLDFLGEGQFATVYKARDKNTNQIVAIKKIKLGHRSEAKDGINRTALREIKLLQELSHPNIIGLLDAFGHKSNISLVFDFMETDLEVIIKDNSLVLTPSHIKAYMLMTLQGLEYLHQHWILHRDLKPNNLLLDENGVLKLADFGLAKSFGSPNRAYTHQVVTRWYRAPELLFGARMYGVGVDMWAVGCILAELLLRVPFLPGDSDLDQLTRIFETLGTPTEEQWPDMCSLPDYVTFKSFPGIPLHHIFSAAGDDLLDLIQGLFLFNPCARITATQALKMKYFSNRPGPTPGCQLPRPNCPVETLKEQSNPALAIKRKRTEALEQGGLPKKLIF
phosphorylated CDK7 (p‐CDK7), sequence (P51946 whole entry partner): as the sequence (P51946 whole entry partner) above
phosphorylated CDK7 (p‐CDK7), sequence (P51948 whole entry partner): as the sequence (P51948 whole entry partner) above
Procedure: To detect CDK7 and phospho‐CDK7 levels at Thr170 residue after treatment, an enzyme‐linked immunosorbent assay (Biomatik, Phospho‐CDK7 (Thr170) Colorimetric Cell‐Based ELISA Kit, Cat# EKA51274) was performed according to the manufacturer's protocols. […] The absorbance was read at 450 nm using a microplate reader.

| Structure (SMILES) | IC50 ([1]; read-out: IC50 PATU‐GR, SRB, gemcitabine resistant PATU‐T GR, average ± SEM, triplicate) [nM] | IC50 ([1]; read-out: IC50 PATU‐GR; SRB, gemcitabine resistant PATU‐T GR, average ± SEM, triplicate) [nM] | percentage of cells in the G2‐M phase ([2]; PANC‐1, 1 × IC50, 24 h) [%] | percentage of cells in the G0‐G1 phase ([2]; PANC‐1, 1 × IC50, 24 h) [%] | percentage of cells in the S phase ([2]; PANC‐1, 1 × IC50, 24 h) [%] | percentage of cells in the G2‐M phase ([2]; PANC‐1, 4 × IC50, 24 h) [%] | percentage of cells in the G0‐G1 phase ([2]; PANC‐1, 4 × IC50, 24 h) [%] | percentage of cells in the S phase ([2]; PANC‐1, 4 × IC50, 24 h) [%] | IC50 [3] [nM] | p‐CDK7 expression vs untreated [4] | IC50 ([1]; SRB, gemcitabine resistant PATU‐T GR, average ± SEM, triplicate; read-out: IC50 PATU‐GR) | IC50 ([3]; ADP‐Glo assay, mean of triplicate experiments, read-out: CDK7 inhibition activity IC50) [nM] |
| --- | --- | --- | --- | --- | --- | --- | --- | --- | --- | --- | --- | --- |
| Cn1cc(-c2cc3ncnc(N)n3n2)c2cc(Br)ccc21 [Compound 1g, 7‐(5‐Bromo‐1‐methyl‐1H‐indol‐3‐yl)pyrazolo[1,5‐a][1,3,5]triazin‐4‐amine] | 2700 | 2700 ± 500 | 16.9 | 55.2 | 27.9 | 14.1 | 56.9 | 29.0 | 28 | decrease in p‐CDK7 expression |  |  |
| Nc1ncnc2cc(-c3c[nH]c4ccc(Br)cc34)nn12 [Compound 1b, 7‐(5‐Bromo‐1H‐indol‐3‐yl)pyrazolo[1,5‐a][1,3,5]triazin‐4‐amine] |  |  | 12.2 | 55.0 | 32.7 | 10.0 | 62.8 | 28.3 |  | decrease in p‐CDK7 expression | 1920 nM and 1900 nM | 25 |
